According to patent US4273775A, “Hydantoin derivatives, anti-diabetic compositions thereof, and method of use thereof” (Pfizer Inc., priority 1980, dated 1981):

Tests used:
[1] = test system: sorbitol accumulation in the sciatic nerve of streptozotocinized rats; assay: inhibition of sorbitol accumulation in the sciatic nerve of streptozotocinized (diabetic) rats; format: in vivo; details: measured 27 hours after induction of diabetes, vs untreated
Procedure: The activity of the compounds of the present invention, as agents for the control of chronic diabetic complications, is determined by their ability to successfully pass one or more of the following standard biological and/or pharmacological tests, viz., (1) measuring their ability to inhibit the enzyme activity of isolated aldose reductase; (2) measuring their ability to reduce or inhibit sorbitol accumulation in the sciatic nerve of acutely streptozotocinized (i.e., diabetic) rats; (3) measuring their ability to reverse already-elevated sorbitol levels in the sciatic nerve and lens of chronic streptozotocin-induced diabetic rats; (4) measuring their ability to prevent or inhibit galactitol formation in the lens of acutely galactosemic rats, and (5) measuring their ability to delay cataract formation and reduce the severity of lens opacities in chronic galactosemic rats. The following tetrahydroquinoline-derived spiro-hydantoin compounds of Examples 1 and 3-4, respectively, were tested for their ability to reduce or inhibit sorbitol accumulation in the sciatic nerve of streptozotocinized (i.e., diabetic) rats by the procedure essentially described in U.S. Pat. No. 3,821,383. In the present study, the amount of sorbitol accumulation in the sciatic nerves was measured 27 hours after induction of diabetes. The compounds were administered orally at the dose levels indicated at 4, 8 and 24 hours following the administration of streptozotocin. The results obtained in this manner are presented below in terms of percent inhibition (%) afforded by the test compound as compared to the case where no compound was administered (i.e., the untreated animal where sorbitol levels normally rise from approximately […]. tissue to as high as 400 mM/g. tissue in the 27-hour test period): […]

[2] = test system: sorbitol levels in diabetic rats; assay: control (inhibition) of the formation of sorbitol levels in diabetic rats, oral; format: in vivo; details: 5.0 mg./kg. to 25 mg./kg.
From the text: As previously indicated, the tetrahydroquinoline-derived spiro-hydantoin compounds of this invention are all readily adapted to therapeutic use as aldose reductase inhibitors for the control of chronic diabetic complications, in view of their ability to reduce lens sorbitol levels in diabetic subjects to a statistically significant degree. […] The other compounds of this invention also cause similar results. Furthermore, all the herein described compounds of this invention can be administered by either the oral or parenteral routes of administration, for the present purposes at hand, without causing any significant untoward pharmacological side reactions to occur in the subject to whom they are so administered. In general, these compounds are ordinarily administered in dosages ranging from about 0.25 mg. to about 25 mg. per kg. of body weight per day, although variations will necessarily occur depending upon the weight and condition of the subject being treated and the particular route of administration chosen.

[3] = 5.0 mg./kg. orally at 4, 8 and 24 hours after streptozotocin

Compound | Percent Inhibition (%) of sorbitol accumulation in sciatic nerve [1, 3] [%] | Percent Inhibition (%) of sorbitol accumulation in sciatic nerve ([1]; 10 mg./kg. orally at 4, 8 and 24 hours after streptozotocin) [%] | control (i.e., inhibit) the formation of sorbitol levels in diabetic rats [2]
O=C1NC(=O)C2(CCNc3cc(Cl)ccc32)N1 (stereo not shown) [Product of Example 3, 7'-chloro-1',2',3',4'-tetrahydro-spiro-[imidazolidine-4,4'-quinoline]-2,5-dione] | 23 |  | 
O=C1NC(=O)C2(CCNc3ccc(Cl)cc32)N1 (stereo not shown) [Product of Example 4, 6'-chloro-1',2',3',4'-tetrahydro-spiro-[imidazolidine-4,4'-quinoline]-2,5-dione] |  | 80 | consistently control (i.e., inhibit) the formation of sorbitol levels in diabetic rats to a significantly high degree
CN1CCC2(NC(=O)NC2=O)c2ccccc21.Cl (stereo not shown) [Product of Example 1, 1'-methyl-1',2',3',4'-tetrahydro-spiro-[imidazolidine-4,4'-quinoline]-2,5-dione hydrochloride] | 19 |  | 
